{"source": "ChEMBL document CHEMBL4312031", "about": "“Discovery of candesartan cilexetic as a novel neddylation inhibitor for suppressing tumor growth” (Eur J Med Chem, 2020)", "key": {"[1]": {"biological_target": "SUMO-conjugating enzyme UBC9 (Homo sapiens) (UniProt P63279)", "sequence (P63279 whole entry)": "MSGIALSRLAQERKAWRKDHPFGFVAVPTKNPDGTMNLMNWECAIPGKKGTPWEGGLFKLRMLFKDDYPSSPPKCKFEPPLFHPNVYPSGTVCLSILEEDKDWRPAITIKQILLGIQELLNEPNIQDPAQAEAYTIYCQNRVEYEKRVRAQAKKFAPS", "assay": "Inhibition of Ubc9 in human A549 cells assessed as reduction in protein sumoylation by measuring Ubc9-Sumo adduct formation at 50 to 100 uM by Western blot analysis", "format": "cell-based"}, "[2]": {"biological_target": "T1, NEDD8-conjugating enzyme Ubc12 (Homo sapiens) (UniProt P61081)", "T1 sequence (whole entry)": "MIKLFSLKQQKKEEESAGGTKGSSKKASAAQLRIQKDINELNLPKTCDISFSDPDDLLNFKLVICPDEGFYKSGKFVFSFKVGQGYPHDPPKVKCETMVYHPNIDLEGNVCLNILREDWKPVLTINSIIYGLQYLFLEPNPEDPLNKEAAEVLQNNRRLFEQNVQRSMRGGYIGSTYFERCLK", "assay": "Inhibition of UBC12 in human A549 cells assessed as decrease in Cullin4a-Nedd8 adduct level at 50 uM measured after 6 to 12 hrs by Western blot analysis", "format": "cell-based"}, "[3]": {"test_system": "NCI-H1299", "assay": "Antiproliferative activity against human H1299 cells measured after 48 hrs by CCK8 assay", "format": "functional, cell-based", "details": "NCI-H1299, 48 h"}, "[4]": {"test_system": "A549", "assay": "Induction of apoptosis in human A549 cells assessed as late apoptotic cells at 25 uM measured after 48 hrs by AnnexinV-FITC/propidium iodide staining based FACS analysis (reference value: 1.71 %)", "format": "functional"}, "[5]": {"test_system": "A549", "assay": "Induction of apoptosis in human A549 cells assessed as early apoptotic cells at 75 uM measured after 48 hrs by AnnexinV-FITC/propidium iodide staining based FACS analysis (reference value: 2.19 %)", "format": "functional"}, "[6]": {"test_system": "T47D", "assay": "Antiproliferative activity against human T47D cells measured after 48 hrs by CCK8 assay", "format": "functional, cell-based"}, "[7]": {"test_system": "HepG2", "assay": "Antiproliferative activity against human HepG2 cells measured after 48 hrs by CCK8 assay", "format": "functional, cell-based", "details": "HepG2, 48 h"}, "[8]": {"test_system": "16HBE14o-", "assay": "Cytotoxicity against human 16HBE cells after 48 hrs by CCK-8 assay", "format": "cell-based"}, "[9]": {"test_system": "A549", "assay": "Cell cycle arrest in human A549 cells assessed as accumulation at sub-G1 phase at 50 uM measured after 24 hrs by propidium iodide/RNase A staining based flow cytometry analysis (reference value: 0.89 %)", "format": "functional"}, "[10]": {"biological_target": "T1, NEDD8-conjugating enzyme Ubc12 (Homo sapiens)", "assay": "Inhibition of UBC12 in human A549 cells assessed as decrease in Cullin2-Nedd8 adduct level at 50 uM measured after 6 to 12 hrs by Western blot analysis", "format": "cell-based"}, "[11]": {"test_system": "A549", "assay": "Inhibition of colony formation in human A549 cells measured after 10 days", "format": "functional, cell-based"}, "[12]": {"test_system": "A549", "assay": "Antitumor activity against human A549 cells xenografted in nude mouse assessed as decrease in tumor size at 60 mg/kg, ip qd measured after 22 days", "format": "functional, organism-based"}, "[13]": {"biological_target": "T2, NEDD8/Cullin-1 (Homo sapiens) (UniProt Q13616+Q15843)", "T2 sequence (Q13616 whole entry, looked up)": "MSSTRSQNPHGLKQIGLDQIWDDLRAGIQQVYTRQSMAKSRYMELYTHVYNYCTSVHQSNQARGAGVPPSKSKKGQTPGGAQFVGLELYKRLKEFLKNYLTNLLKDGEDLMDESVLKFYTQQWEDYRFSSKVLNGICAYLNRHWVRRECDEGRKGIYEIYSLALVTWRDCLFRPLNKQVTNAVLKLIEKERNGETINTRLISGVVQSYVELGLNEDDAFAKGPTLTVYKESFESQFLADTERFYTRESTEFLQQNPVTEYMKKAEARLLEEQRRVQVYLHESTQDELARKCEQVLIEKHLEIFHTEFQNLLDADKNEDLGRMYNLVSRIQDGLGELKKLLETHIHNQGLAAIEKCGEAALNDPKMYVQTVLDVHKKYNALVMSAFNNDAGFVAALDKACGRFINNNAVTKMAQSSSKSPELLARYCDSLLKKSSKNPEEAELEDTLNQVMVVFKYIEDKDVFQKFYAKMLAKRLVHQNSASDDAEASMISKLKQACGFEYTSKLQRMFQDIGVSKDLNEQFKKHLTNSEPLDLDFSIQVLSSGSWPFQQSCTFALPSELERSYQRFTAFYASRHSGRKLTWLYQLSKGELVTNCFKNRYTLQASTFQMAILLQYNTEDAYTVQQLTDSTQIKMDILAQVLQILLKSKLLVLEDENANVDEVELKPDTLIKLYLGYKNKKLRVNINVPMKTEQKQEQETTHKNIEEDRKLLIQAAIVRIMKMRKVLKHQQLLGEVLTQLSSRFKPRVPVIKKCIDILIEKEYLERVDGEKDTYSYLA", "T2 sequence (Q15843 whole entry, looked up)": "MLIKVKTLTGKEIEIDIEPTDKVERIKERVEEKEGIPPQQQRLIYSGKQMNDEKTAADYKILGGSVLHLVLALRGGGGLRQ", "assay": "Competitive inhibition of Nedd8-cullin1 (unknown origin) adduct formation at 12.5 to 50 uM assessed as substrate Vmax by Lineweaver-Burk plot analysis", "format": "protein assay"}, "[14]": {"test_system": "A549", "assay": "Effect on SUMO1 level in human A549 cells by Western blot analysis", "format": "functional, cell-based"}, "[15]": {"test_system": "A549", "assay": "Induction of apoptosis in human A549 cells assessed as late apoptotic cells at 75 uM measured after 48 hrs by AnnexinV-FITC/propidium iodide staining based FACS analysis (reference value: 1.71 %)", "format": "functional"}, "[16]": {"biological_target": "T1, NEDD8-conjugating enzyme Ubc12 (Homo sapiens)", "assay": "Inhibition of UBC12 in human A549 cells assessed as decrease in Cullin1-Nedd8 adduct level measured after 6 to 12 hrs by Western blot analysis", "format": "cell-based"}, "[17]": {"biological_target": "T3, NEDD8/NEDD8-conjugating enzyme Ubc12 (Homo sapiens) (UniProt P61081+Q15843)", "assay": "Inhibition of Nedd8-Ubc12 (unknown origin) assessed as decrease in Ubc12-Nedd8 adduct formation at 50 uM preincubated for 10 mins followed by ATP addition and measured after 30 mins by immunoblot analysis", "format": "protein-complex assay"}, "[18]": {"test_system": "A549", "assay": "Antitumor activity against human A549 cells xenografted in nude mouse assessed as decrease in tumor size at 30 mg/kg, ip qd measured after 22 days", "format": "functional, organism-based"}, "[19]": {"test_system": "A549", "assay": "Cell cycle arrest in human A549 cells assessed as accumulation at G2 phase at 25 uM measured after 24 hrs by propidium iodide/RNase A staining based flow cytometry analysis (reference value: 12.69 %)", "format": "functional"}, "[20]": {"test_system": "A549", "assay": "Inhibition of cullin-RING ligase in human A549 cells assessed as accumulation of Wee1 level at 50 to 125 uM and measured after 6 to 12 hrs by Western blot analysis", "format": "cell-based"}, "[21]": {"test_system": "A549", "assay": "Cell cycle arrest in human A549 cells assessed as accumulation at S phase at 75 uM measured after 24 hrs by propidium iodide/RNase A staining based flow cytometry analysis (reference value: 21.54 %)", "format": "functional"}, "[22]": {"biological_target": "T1, NEDD8-conjugating enzyme Ubc12 (Homo sapiens)", "assay": "Inhibition of UBC12 in human A549 cells assessed as decrease in Cullin2-Nedd8 adduct level measured after 6 to 12 hrs by Western blot analysis", "format": "cell-based"}, "[23]": {"biological_target": "T1, NEDD8-conjugating enzyme Ubc12 (Homo sapiens)", "assay": "Inhibition of UBC12 in human A549 cells assessed as decrease in Cullin3-Nedd8 adduct level measured after 6 to 12 hrs by Western blot analysis", "format": "cell-based"}, "[24]": {"test_system": "A549", "assay": "Cell cycle arrest in human A549 cells assessed as accumulation at G1 phase at 50 uM measured after 24 hrs by propidium iodide/RNase A staining based flow cytometry analysis (reference value: 63.84 %)", "format": "functional"}, "[25]": {"test_system": "A549", "assay": "Cell cycle arrest in human A549 cells assessed as accumulation at G2 phase at 75 uM measured after 24 hrs by propidium iodide/RNase A staining based flow cytometry analysis (reference value: 12.69 %)", "format": "functional"}, "[26]": {"test_system": "A549", "assay": "Induction of apoptosis in human A549 cells assessed as late apoptotic cells at 50 uM measured after 48 hrs by AnnexinV-FITC/propidium iodide staining based FACS analysis (reference value: 1.71 %)", "format": "functional"}, "[27]": {"test_system": "A549", "assay": "Antiproliferative activity against human A549 cells measured after 48 hrs by CCK8 assay", "format": "functional, cell-based", "details": "A549, 48 h"}, "[28]": {"test_system": "A549", "assay": "Cell cycle arrest in human A549 cells assessed as accumulation at S phase at 25 uM measured after 24 hrs by propidium iodide/RNase A staining based flow cytometry analysis (reference value: 21.54 %)", "format": "functional"}, "[29]": {"biological_target": "T3, NEDD8/NEDD8-conjugating enzyme Ubc12 (Homo sapiens)", "assay": "Competitive inhibition of Nedd8-Ubc12 (unknown origin) adduct formation assessed as decrease in Ubc12-Nedd8 adduct formation at 50 uM preincubated for 10 mins followed by ATP addition and measured after 30 mins by immunoblot analysis", "format": "protein-complex assay"}, "[30]": {"biological_target": "T2, NEDD8/Cullin-1 (Homo sapiens)", "assay": "Inhibition of Nedd8-cullin1 (unknown origin) adduct formation assessed as decrease in cullin1 neddylation at 50 uM preincubated for 10 mins followed by ATP addition and measured after 30 mins by immunoblot analysis", "format": "protein assay"}, "[31]": {"test_system": "A549", "assay": "Cell cycle arrest in human A549 cells assessed as accumulation at sub-G1 phase at 75 uM measured after 24 hrs by propidium iodide/RNase A staining based flow cytometry analysis (reference value: 0.89 %)", "format": "functional"}, "[32]": {"biological_target": "T1, NEDD8-conjugating enzyme Ubc12 (Homo sapiens)", "assay": "Inhibition of UBC12 in human A549 cells assessed as decrease in Cullin3-Nedd8 adduct level at 50 uM measured after 6 to 12 hrs by Western blot analysis", "format": "cell-based"}, "[33]": {"biological_target": "T2, NEDD8/Cullin-1 (Homo sapiens)", "assay": "Inhibition of Nedd8-cullin1 adduct formation in human A549 cells assessed as decrease in cullin1 neddylation at 100 uM incubated for 6 to 12 hrs by Western blot analysis", "format": "cell-based"}, "[34]": {"test_system": "EKVX", "assay": "Antiproliferative activity against human EKVX cells measured after 48 hrs by CCK8 assay", "format": "functional, cell-based"}}, "note": "Activity calls are given as the source filed them. The rule behind the calls is not given here."}
{"compound": "CCOc1nc2cccc(C(=O)OC(C)OC(=O)OC3CCCCC3)c2n1Cc1ccc(-c2ccccc2-c2nn[nH]n2)cc1", "note": "(centres undefined) [CANDESARTAN CILEXETIL]", "values": [{"measurement": "inhibition", "setting": "[1]", "value": "inactive"}, {"measurement": "inhibition", "setting": "[2]", "value": "Active"}, {"measurement": "IC50", "setting": "[3]", "value": 45.1, "unit": "µM"}, {"measurement": "Activity", "setting": "[4]", "value": 5.5, "unit": "%"}, {"measurement": "Activity", "setting": "[5]", "value": 36.64, "unit": "%"}, {"measurement": "IC50", "setting": "[6]", "value": 64.3, "unit": "µM"}, {"measurement": "IC50", "setting": "[7]", "value": "> 100", "unit": "µM"}, {"measurement": "IC50", "setting": "[8]", "value": "> 100", "unit": "µM"}, {"measurement": "Activity", "setting": "[9]", "value": 20.35, "unit": "%"}, {"measurement": "inhibition", "setting": "[10]", "value": "Active"}, {"measurement": "inhibition", "setting": "[11]", "value": "Dose-dependent effect"}, {"measurement": "Activity", "setting": "[12]", "value": "Active"}, {"measurement": "inhibition", "setting": "[13]", "value": "Active"}, {"measurement": "Activity", "setting": "[14]", "value": "inactive"}, {"measurement": "Activity", "setting": "[15]", "value": 14.26, "unit": "%"}, {"measurement": "inhibition", "setting": "[16]", "value": "Dose-dependent effect"}, {"measurement": "inhibition", "setting": "[17]", "value": 100, "unit": "%"}, {"measurement": "Activity", "setting": "[18]", "value": "Active"}, {"measurement": "Activity", "setting": "[19]", "value": 6.48, "unit": "%"}, {"measurement": "inhibition", "setting": "[20]", "value": "Active"}, {"measurement": "Activity", "setting": "[21]", "value": 19.74, "unit": "%"}, {"measurement": "inhibition", "setting": "[22]", "value": "Dose-dependent effect"}, {"measurement": "inhibition", "setting": "[23]", "value": "Dose-dependent effect"}, {"measurement": "Activity", "setting": "[24]", "value": 60.18, "unit": "%"}, {"measurement": "Activity", "setting": "[25]", "value": 8.15, "unit": "%"}, {"measurement": "Activity", "setting": "[26]", "value": 13.36, "unit": "%"}, {"measurement": "IC50", "setting": "[27]", "value": 63.9, "unit": "µM"}, {"measurement": "Activity", "setting": "[28]", "value": 18.37, "unit": "%"}, {"measurement": "inhibition", "setting": "[29]", "value": "Active"}, {"measurement": "inhibition", "setting": "[30]", "value": "Active"}, {"measurement": "Activity", "setting": "[31]", "value": 30.45, "unit": "%"}, {"measurement": "inhibition", "setting": "[32]", "value": "Active"}, {"measurement": "inhibition", "setting": "[33]", "value": "Active"}, {"measurement": "IC50", "setting": "[34]", "value": "> 100", "unit": "µM"}]}
